Reference: patent US20200069691A1, “HETEROCYCLIC COMPOUNDS AS HIV PROTEASE INHIBITORS” (Merck Sharp & Dohme Corp., priority 2016, published 2020)

Biological target: T1, wild-type HIV-1 protease (Human immunodeficiency virus type 1 group M subtype B, UniProt P04585)
T1 construct: Escherichia coli expressed wild-type HIV-1 protease protein
Assay: Assay for Inhibition of Microbial Expressed HIV Protease (peptide substrate cleavage, LC-MS/MS readout)
Type: biochemical
Details: E. coli expressed wild-type HIV-1 protease, mean of at least two independent experiments, read-out: HIV Pr Enzyme HIV1 PR IC50
How it was run: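 E. coli-expressed wild-type HIV-1 protease ([…]) was preincubated with inhibitor 30 min at room temperature in pH 5.5 acetate buffer (100 mM NaCl, 0.1% BSA). Then 400 μM octapeptide substrate was added and reacted 1 h at 30 °C; inhibition came from LC-MS/MS product peak areas, mean of ≥2 experiments.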

SMILES	IC50 [nM]
CCCC1(c2ccccc2)NC(=N)N(Cc2cccc(C(=O)N3Cc4cnc(C)nc4C3)c2)C1=O (stereo not drawn) [Compound 345, 2-imino-3-{3-[(2-methyl-5,7-dihydro-6H-pyrrolo[3,4-d]pyrimidin-6-yl)carbonyl]benzyl}-5-phenyl-5-propylimidazolidin-4-one]	81.9
N=C1NC(c2ccc(F)cc2)(c2ccc(F)cc2)C(=O)N1Cc1cccc(C(=O)N2Cc3ccc(C(F)(F)F)cc3C2)c1 [Compound 317, 5,5-bis(4-fluorophenyl)-2-imino-3-(3-{[5-(trifluoromethyl)-1,3-dihydro-2H-isoindol-2-yl]carbonyl}benzyl)-imidazolidin-4-one]	54.9
N=C1N[C@](CCCC(F)(F)F)(c2ccc(F)cc2)C(=O)N1Cc1ccc(C(F)(F)F)c(C(=O)N2Cc3cnc(-c4cc(F)cc(F)c4)nc3C2)c1 [Compound 121, (5R)-3-[3-{[2-(3,5-difluorophenyl)-5,7-dihydro-6H-pyrrolo[3,4-d]pyrimidin-6-yl]carbonyl}-4-(trifluoromethyl)benzyl]-5-(4-fluorophenyl)-2-imino-5-(4,4,4-trifluorobutyl)imidazolidin-4-one]	44.3
Cc1cc2c(cn1)CN(C(=O)c1cccc(CN3C(=N)NC(c4ccc(F)cc4)(c4ccc(F)cc4)C3=O)c1)C2 [Compound 226, 5,5-bis(4-fluorophenyl)-2-imino-3-{3-[(6-methyl-1,3-dihydro-2H-pyrrolo[3,4-c]pyridin-2-yl)carbonyl]benzyl} imidazolidin-4-one]	12.4
C[C@H](c1cccc(C(=O)N2Cc3cncnc3C2)c1)N1C(=N)NC(c2ccccc2)(c2ccccc2)C1=O [Compound 228, 3-{(1R)-1-[3-(5,7-dihydro-6H-pyrrolo[3,4-d]pyrimidin-6-ylcarbonyl)phenyl]ethyl}-2-imino-5,5-diphenylimidazolidin-4-one]	13.1
Cc1ncc2c(n1)CN(C(=O)c1cccc(CN3C(=N)NC(c4ccc(F)cc4)(c4ccc(F)cc4)C3=O)c1)C2 [Compound 254, 5,5-bis(4-fluorophenyl)-2-imino-3-{3-[(2-methyl-5,7-dihydro-6H-pyrrolo[3,4-d]pyrimidin-6-yl)carbonyl]benzyl} imidazolidin-4-one]	20.2
N=C1N[C@](CCC2CC2)(c2ccc(F)cc2)C(=O)N1C(CCc1ccccc1)c1ccc(C(F)(F)F)c(C(=O)N2Cc3nccnc3C2)c1 (stereo partly drawn) [Compound 3, (5R)-5-(2-cyclopropylethyl)-3-{1-[3-(5,7-dihydro-6H-pyrrolo[3,4-b]pyrazin-6-ylcarbonyl)-4-(trifluoromethyl)phenyl]-3-phenylpropyl}-5-(4-fluorophenyl)-2-iminoimidazolidin-4-one]	0.17
CC(C)OCC(c1ccc(C(F)(F)F)c(C(=O)N2Cc3nccnc3C2)c1)N1C(=N)N[C@](CCC2CC2)(c2ccc(F)cc2)C1=O (stereo partly drawn) [Compound 38, (5R)-5-(2-cyclopropylethyl)-3-{1-[3-(5,7-dihydro-6H-pyrrolo[3,4-b]pyrazin-6-ylcarbonyl)-4-(trifluoromethyl)phenyl]-2-(1-methylethoxy)ethyl}-5-(4-fluorophenyl)-2-iminoimidazolidin-4-one]	4.03
Cc1n[nH]cc1-c1ncc2c(n1)CN(C(=O)c1cc(CN3C(=N)N[C@](CCCC(F)(F)F)(c4ccc(F)cc4)C3=O)ccc1C(F)(F)F)C2 [Compound 27, (5R)-5-(4-fluorophenyl)-2-imino-3-[3-{[2-(3-methyl-1H-pyrazol-4-yl)-5,7-dihydro-6H-pyrrolo[3,4-d]pyrimidin-6-yl]carbonyl}-4-(trifluoromethyl)benzyl]-5-(4,4,4-trifluorobutyl)imidazolidin-4-one]	2.88
N=C1N[C@](CCC2CC2)(c2ccc(F)cc2)C(=O)N1[C@@H]1CCCc2ccc(C(=O)N3Cc4nccnc4C3)cc21 [Compound 129, (5R)-5-(2-cyclopropylethyl)-3-[(1R)-7-(5,7-dihydro-6H-pyrrolo[3,4-b]pyrazin-6-ylcarbonyl)-1,2,3,4-tetrahydronaphthalen-1-yl]-5-(4-fluorophenyl)-2-iminoimidazolidin-4-one]	70.8
CC(C)CC1(c2ccccc2)NC(=N)N(Cc2cccc(C(=O)N3Cc4cnc(C#N)nc4C3)c2)C1=O (stereo not drawn) [Compound 222, 6-[(3-{[2-imino-4-(2-methylpropyl)-5-oxo-4-phenylimidazolidin-1-yl]methyl}phenyl)carbonyl]-6,7-dihydro-5H-pyrrolo[3,4-d]pyrimidine-2-carbonitrile]	11.1
N#Cc1cccc(C2(c3ccc(F)cc3)NC(=N)N(Cc3cccc(C(=O)N4Cc5ccccc5C4)c3)C2=O)c1 (stereo not drawn) [Compound 262, 3-{1-[3-(1,3-dihydro-2H-isoindol-2-ylcarbonyl)benzyl]-4-(4-fluorophenyl)-2-imino-5-oxoimidazolidin-4-yl}benzonitrile]	24.4
N=C1N[C@](CCCC(F)(F)F)(c2ccc(F)cc2)C(=O)N1Cc1ccc(C(F)(F)F)c(C(=O)N2Cc3cnc(-c4cccnc4)nc3C2)c1 [Compound 47, (5R)-5-(4-fluorophenyl)-2-imino-3-{3-[(2-pyridin-3-yl-5,7-dihydro-6H-pyrrolo[3,4-d]pyrimidin-6-yl)carbonyl]-4-(trifluoromethyl)-benzyl}-5-(4,4,4-trifluorobutyl)-imidazolidin-4-one]	4.91
CC(C)CC[C@]1(c2ccc(F)cc2)NC(=N)N(C(COC(C)C)c2ccc(C(F)(F)F)c(C(=O)N3Cc4nccnc4C3)c2)C1=O (stereo partly drawn) [Compound 8, (5R)-3-{1-[3-(5,7-dihydro-6H-pyrrolo[3,4-b]pyrazin-6-ylcarbonyl)-4-(trifluoromethyl)phenyl]-2-(1-methylethoxy)ethyl}-5-(4-fluorophenyl)-2-imino-5-(3-methylbutyl)imidazolidin-4-one]	0.52
N=C1N[C@](CCCC(F)(F)F)(c2ccc(F)cc2)C(=O)N1Cc1ccc(C(F)(F)F)c(C(=O)N2Cc3cnc(N[C@@H]4CCOC4)nc3C2)c1 [Compound 36, (5R)-5-(4-fluorophenyl)-2-imino-3-[3-({2-[(3R)-tetrahydrofuran-3-ylamino]-5,7-dihydro-6H-pyrrolo[3,4-d]pyrimidin-6-yl}carbonyl)-4-(trifluoromethyl)-benzyl]-5-(4,4,4-trifluorobutyl)-imidazolidin-4-one]	3.51
N=C1N[C@](CCCC(F)(F)F)(c2ccc(F)cc2)C(=O)N1Cc1ccc(C(F)(F)F)c(C(=O)N2CCN(CC(F)(F)F)CC2)c1 [Compound 127, (5R)-5-(4-fluorophenyl)-2-imino-5-(4,4,4-trifluorobutyl)-3-[3-{[4-(2,2,2-trifluoroethyl)piperazin-1-yl]carbonyl}-4-(trifluoromethyl)-benzyl]imidazolidin-4-one]	65.1
CCCC1(c2ccccc2)NC(=N)N(Cc2cccc(C(=O)N3Cc4ccccc4C3)c2)C1=O (stereo not drawn) [Compound 236, 3-[3-(1,3-dihydro-2H-isoindol-2-ylcarbonyl)benzyl]-2-imino-5-phenyl-5-propylimidazolidin-4-one]	14.4
N=C1NC(c2ccc(F)cc2)(c2cccc(Br)c2)C(=O)N1Cc1cccc(C(=O)N2Cc3ccccc3C2)c1 (stereo not drawn) [Compound 289, 5-(3-bromophenyl)-3-[3-(1,3-dihydro-2H-isoindol-2-ylcarbonyl)benzyl]-5-(4-fluorophenyl)-2-iminoimidazolidin-4-one]	36.1
